Measured values as given in ChEMBL document CHEMBL1201862, “PubChem BioAssay data set” (2004).
Active and inactive are the calls of the source.

How the values were obtained:
[1] = blockers of HIV-1 envelope-mediated cell-cell fusion – cherry-pick, dose response (AID 652057); type: functional, cell-based
Streptococcus = test: GAS UMAA2166 growth inhibition – luminescence, BacTiterGlo, counter-screen for streptokinase expression inhibitor project, dose response (AID 1915); type: functional, organism-based;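 note: potency for reduction of bacterial viability or growth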
[2] = inhibition of Env-driven cell fusion – HIV entry, plate reader, dry powder, dose response (AID 687023); type: functional, cell-based
Hexokinase-1 = Hexokinase-1 (Homo sapiens, UniProt P19367); test: HK1 enzyme activation by HKDC1 hits – biochemical, selectivity assay for HKDC1 activator project, dose response (AID 504762); type: functional
Hexokinase-1, sequence (P19367 whole entry, the tested form may be a part): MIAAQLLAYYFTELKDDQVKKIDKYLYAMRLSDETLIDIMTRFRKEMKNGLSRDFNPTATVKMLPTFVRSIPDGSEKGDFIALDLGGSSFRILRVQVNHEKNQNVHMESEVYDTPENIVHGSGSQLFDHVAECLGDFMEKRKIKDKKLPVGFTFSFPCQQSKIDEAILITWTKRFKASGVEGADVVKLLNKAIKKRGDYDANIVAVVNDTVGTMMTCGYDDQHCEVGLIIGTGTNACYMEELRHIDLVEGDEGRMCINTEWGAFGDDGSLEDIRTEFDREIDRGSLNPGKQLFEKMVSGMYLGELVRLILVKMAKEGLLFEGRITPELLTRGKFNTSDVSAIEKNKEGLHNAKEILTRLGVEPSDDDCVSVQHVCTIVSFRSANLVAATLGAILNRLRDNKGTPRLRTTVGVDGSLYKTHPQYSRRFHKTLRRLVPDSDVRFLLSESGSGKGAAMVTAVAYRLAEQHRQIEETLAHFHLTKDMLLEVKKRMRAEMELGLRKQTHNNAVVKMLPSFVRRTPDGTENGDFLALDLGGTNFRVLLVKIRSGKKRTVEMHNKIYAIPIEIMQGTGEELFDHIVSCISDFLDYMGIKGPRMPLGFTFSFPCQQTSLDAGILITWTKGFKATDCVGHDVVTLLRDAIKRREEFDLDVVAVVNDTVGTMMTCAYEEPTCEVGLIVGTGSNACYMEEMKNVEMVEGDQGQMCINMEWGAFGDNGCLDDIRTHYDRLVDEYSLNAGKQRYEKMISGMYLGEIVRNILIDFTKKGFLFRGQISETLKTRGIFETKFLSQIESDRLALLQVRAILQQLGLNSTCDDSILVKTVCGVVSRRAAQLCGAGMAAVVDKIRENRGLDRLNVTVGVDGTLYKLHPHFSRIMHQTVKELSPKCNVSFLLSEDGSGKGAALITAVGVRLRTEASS

[3] = blockers of HIV-1 ZM109 envelope-driven cell-cell fusion – HeLa effector, CEM target cells, luciferase, cherry-pick, dose response (AID 652058); type: functional, cell-based;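 note: luciferase signal from HIV-1 Env mediated cell-cell fusion of effector and target cells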
[4] = fluconazole-exposed Candida albicans growth modulators – fluorescence, retest, confirmation (AID 2467); type: functional, cell-based
[5] = viability loss in CEM21 cells – cell-based, plate reader, dry powder, cytotoxicity control, dose response (AID 687026); type: functional
[6] = target: T1, Probable nicotinate-nucleotide adenylyltransferase (Staphylococcus aureus (strain N315), UniProt P65502); type: functional, Staphylococcus aureus subsp. aureus N315;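 for IC50 Mean: confirmatory dose-response retesting of NadD inhibitor hits first found in an ultra-high-throughput screen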
T1 sequence (P65502 whole entry): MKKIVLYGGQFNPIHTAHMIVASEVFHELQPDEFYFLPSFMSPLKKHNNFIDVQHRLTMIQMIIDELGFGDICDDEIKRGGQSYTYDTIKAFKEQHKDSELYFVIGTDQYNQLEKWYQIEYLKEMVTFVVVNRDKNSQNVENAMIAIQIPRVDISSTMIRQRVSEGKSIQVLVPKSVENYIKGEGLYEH

[7] = tested on: Streptococcus sp. 'group A'; test: Streptococcus pyogenes SK(-)GAS viability under kanamycin – luminescence, BacTiterGlo, confirmation, counter-screen for streptokinase expression inhibitor project, dose response (AID 1900); type: functional, organism-based
[8] = target: T1, Probable nicotinate-nucleotide adenylyltransferase; type: functional, Staphylococcus aureus subsp. aureus N315; details: read-out: IC50_Mean
Hexokinase HKDC1 = target: T2, Hexokinase HKDC1 (Homo sapiens, UniProt Q2TB90); test: activation of HKDC1 glucose phosphorylation – biochemical, W721R variant, dose response (AID 504730); type: functional
T2 sequence (Q2TB90 whole entry): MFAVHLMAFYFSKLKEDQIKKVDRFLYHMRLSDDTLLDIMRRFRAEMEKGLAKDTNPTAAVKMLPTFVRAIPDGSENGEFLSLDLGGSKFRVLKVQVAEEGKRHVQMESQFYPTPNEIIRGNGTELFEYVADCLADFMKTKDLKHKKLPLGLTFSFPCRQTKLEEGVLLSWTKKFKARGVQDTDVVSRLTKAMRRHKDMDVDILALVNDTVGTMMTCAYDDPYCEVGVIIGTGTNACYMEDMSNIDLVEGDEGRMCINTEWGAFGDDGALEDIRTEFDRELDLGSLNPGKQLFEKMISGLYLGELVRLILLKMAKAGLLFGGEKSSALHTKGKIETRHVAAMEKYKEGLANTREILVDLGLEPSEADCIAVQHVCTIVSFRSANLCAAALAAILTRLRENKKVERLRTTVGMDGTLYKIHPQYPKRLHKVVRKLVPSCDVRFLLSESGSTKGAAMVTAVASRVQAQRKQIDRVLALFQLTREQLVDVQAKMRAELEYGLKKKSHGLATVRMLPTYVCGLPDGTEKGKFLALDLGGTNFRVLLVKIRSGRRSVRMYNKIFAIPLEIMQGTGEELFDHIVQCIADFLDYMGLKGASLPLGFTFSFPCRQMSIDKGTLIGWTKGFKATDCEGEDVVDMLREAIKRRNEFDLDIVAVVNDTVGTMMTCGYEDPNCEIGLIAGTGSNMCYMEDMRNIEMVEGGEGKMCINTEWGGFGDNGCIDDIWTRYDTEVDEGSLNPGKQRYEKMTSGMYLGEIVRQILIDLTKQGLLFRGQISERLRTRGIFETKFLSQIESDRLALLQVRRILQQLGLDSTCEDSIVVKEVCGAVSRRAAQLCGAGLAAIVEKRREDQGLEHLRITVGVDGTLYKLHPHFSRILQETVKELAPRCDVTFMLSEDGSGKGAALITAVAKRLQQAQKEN

[9] = NIH-3T3 fibroblast cytotoxicity, dose response, cytotoxicity control, cell-based, fluorescence, Alamar Blue, secondary assay (AID 2327); type: functional;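 note: NIH-3T3 mouse fibroblasts cultured with fluconazole at 8 µg/mL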
[10] = HIV-1 AD8 envelope cell-cell fusion blockers – cherry-pick, dose response (AID 652062); type: functional, cell-based;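 note: luciferase signal from cell-cell fusion driven by HIV-1 clade B AD8 Env; potency is for inhibitors of fusion seen as a drop in luminescence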
[11] = target: T3, Replicative DNA helicase DnaB (Mycobacterium tuberculosis, UniProt P9WMR3); test: DnaB intein splicing inhibitors, dose response, biochemical, cell-free fluorescence (AID 449749); type: functional
T3 sequence (P9WMR3 whole entry): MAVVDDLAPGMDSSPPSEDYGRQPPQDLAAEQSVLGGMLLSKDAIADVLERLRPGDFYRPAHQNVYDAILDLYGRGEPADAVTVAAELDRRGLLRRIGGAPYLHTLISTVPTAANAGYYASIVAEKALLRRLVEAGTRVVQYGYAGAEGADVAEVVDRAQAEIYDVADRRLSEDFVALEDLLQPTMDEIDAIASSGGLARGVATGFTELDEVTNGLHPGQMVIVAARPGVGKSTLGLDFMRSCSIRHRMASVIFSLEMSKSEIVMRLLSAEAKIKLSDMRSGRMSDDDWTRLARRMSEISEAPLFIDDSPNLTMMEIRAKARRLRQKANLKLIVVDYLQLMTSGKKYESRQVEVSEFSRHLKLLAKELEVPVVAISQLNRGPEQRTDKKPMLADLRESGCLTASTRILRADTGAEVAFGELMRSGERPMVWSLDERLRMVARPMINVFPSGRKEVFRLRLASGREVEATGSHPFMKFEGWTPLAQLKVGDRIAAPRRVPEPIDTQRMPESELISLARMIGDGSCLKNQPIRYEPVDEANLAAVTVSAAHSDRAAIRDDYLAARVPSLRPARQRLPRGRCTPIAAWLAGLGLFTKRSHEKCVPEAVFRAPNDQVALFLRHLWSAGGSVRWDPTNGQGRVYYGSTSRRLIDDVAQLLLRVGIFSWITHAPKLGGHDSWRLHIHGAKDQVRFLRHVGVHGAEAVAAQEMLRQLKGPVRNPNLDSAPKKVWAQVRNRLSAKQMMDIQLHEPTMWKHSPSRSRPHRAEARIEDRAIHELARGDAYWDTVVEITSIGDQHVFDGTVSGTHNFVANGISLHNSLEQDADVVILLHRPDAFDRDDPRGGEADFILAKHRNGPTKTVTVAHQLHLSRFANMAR

[12] = Intein inhibitors as potential Tuberculosis drugs, a cytotoxicity screen. [Related pubchem assays (depositor defined):AID2221, AID2223, AID434968, AID435010, AID449749, AID449750, AID489010]; type: functional
[13] = target: T4, Heat shock factor protein 1 (Mus musculus, UniProt P38532); test: enhancement of HSF1-driven luciferase signal – cell-based, NIH3T3, luminescence, dose retest, confirmation (AID 435004); type: functional;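 note: stress induced by proteasome inhibitor MG132 added 30 min after compound; luciferase reporter driven by HSF1 response element in NIH3T3 cells; actives raise luminescence as potentiators of the MG132 stress response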
T4 sequence (P38532 whole entry): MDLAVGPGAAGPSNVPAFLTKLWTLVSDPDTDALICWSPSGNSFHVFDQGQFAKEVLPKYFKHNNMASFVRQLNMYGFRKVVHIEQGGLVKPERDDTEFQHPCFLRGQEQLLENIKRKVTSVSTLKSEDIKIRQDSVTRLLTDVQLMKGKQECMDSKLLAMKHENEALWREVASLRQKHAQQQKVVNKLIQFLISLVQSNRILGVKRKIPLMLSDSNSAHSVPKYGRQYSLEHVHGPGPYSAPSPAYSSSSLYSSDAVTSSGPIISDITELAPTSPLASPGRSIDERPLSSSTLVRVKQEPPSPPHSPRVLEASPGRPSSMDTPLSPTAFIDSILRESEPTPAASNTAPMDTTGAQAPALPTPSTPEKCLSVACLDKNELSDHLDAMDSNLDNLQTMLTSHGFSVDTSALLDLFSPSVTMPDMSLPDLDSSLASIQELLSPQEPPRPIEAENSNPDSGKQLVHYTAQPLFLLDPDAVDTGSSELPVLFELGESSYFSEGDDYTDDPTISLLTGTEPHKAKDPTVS

Protein RecA = target: T5, Protein RecA (Mycobacterium tuberculosis, UniProt P9WHJ3); test: Fluorescence Cell-Free Homogeneous Dose Retest to Identify Inhibitors of RecA-Intein Splicing Activity. [Related pubchem assays (depositor defined):AID2097, AID2223, AID489010, AID492950]; type: functional
T5 sequence (P9WHJ3 whole entry): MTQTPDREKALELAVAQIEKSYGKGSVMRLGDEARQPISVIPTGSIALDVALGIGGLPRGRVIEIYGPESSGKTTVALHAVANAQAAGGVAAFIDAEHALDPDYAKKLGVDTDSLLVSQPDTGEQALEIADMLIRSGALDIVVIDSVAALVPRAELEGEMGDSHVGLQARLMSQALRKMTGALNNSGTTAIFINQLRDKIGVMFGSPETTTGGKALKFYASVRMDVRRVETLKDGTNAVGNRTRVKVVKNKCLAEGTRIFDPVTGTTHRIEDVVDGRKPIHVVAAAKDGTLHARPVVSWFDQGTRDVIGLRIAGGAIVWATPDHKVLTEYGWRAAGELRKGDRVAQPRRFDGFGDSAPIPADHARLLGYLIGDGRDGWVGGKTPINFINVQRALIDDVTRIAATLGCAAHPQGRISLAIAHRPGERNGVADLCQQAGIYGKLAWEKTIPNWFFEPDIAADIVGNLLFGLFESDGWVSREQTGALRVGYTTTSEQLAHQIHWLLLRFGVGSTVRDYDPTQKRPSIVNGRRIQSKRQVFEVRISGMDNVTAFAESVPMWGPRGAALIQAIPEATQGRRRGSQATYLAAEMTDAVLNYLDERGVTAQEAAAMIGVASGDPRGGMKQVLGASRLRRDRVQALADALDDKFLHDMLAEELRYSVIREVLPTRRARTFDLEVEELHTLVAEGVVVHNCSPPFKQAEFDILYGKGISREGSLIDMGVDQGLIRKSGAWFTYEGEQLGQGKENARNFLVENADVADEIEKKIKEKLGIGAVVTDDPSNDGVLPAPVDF

[14] = target: T6, Histone-lysine N-methyltransferase NSD2 (Homo sapiens, UniProt O96028); type: biochemical
T6 sequence (O96028 whole entry): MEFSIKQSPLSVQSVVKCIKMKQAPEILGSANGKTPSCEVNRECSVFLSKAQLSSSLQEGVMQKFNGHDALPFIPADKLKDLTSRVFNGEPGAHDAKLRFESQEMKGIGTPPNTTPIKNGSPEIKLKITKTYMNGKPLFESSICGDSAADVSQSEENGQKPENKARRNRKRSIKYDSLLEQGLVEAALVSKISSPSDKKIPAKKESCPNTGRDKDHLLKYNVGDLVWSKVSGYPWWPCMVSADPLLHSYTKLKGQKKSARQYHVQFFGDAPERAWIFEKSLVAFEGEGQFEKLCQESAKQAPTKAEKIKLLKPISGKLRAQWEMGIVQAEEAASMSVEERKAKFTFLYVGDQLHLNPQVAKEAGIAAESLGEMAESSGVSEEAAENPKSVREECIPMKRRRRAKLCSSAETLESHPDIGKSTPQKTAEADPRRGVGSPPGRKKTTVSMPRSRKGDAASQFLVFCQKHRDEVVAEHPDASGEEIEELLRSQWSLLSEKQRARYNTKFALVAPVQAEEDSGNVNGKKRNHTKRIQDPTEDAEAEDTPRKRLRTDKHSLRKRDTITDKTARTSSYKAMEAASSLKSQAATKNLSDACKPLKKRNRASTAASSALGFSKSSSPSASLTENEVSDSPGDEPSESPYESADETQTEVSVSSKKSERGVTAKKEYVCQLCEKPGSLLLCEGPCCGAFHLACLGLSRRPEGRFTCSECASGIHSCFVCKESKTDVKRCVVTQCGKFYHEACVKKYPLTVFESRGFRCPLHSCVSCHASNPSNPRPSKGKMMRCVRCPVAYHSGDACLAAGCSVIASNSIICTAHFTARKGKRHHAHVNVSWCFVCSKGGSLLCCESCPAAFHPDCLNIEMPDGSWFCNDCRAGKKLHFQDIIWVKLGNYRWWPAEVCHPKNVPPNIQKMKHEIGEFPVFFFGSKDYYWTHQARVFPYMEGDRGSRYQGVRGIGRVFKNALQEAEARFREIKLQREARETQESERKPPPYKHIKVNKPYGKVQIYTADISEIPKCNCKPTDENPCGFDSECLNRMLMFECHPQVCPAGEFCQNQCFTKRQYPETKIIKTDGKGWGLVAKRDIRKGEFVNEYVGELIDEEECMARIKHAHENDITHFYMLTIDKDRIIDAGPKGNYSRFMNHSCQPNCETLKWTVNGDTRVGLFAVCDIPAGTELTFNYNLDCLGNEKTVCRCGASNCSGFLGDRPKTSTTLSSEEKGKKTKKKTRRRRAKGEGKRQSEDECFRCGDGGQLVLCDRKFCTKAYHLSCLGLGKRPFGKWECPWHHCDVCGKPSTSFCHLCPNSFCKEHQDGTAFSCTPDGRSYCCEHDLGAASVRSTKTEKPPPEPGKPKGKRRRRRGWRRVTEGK

INS1 = test: INS-1E survival protection against cytokine death – cell-based, luminescence, retest, dose response (AID 449756); type: functional; details: Rattus norvegicus;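 note: cell death triggered by IL-1 beta plus TNF-alpha plus IFN-gamma mixture; protective hits raise ATP signal compared with cytokine alone wells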
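Throughout, for CC50: cells exposed to compound for 72 hours before luminescence readout.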

Row | Compound | AC50 [1] | EC50 (Streptococcus) | AC50 [2] | EC50 (Hexokinase-1) | AC50 [3] | EC50 [4] | AC50 [5] | IC50 [6] | EC50 [7] | IC50 [8] | EC50 (Hexokinase HKDC1) | EC50 [9] | AC50 [10] | AC50 [11] | CC50 [12] | EC50 [13] | EC50 (Protein RecA) | AC50 [14] | AC50 (INS1)
1 | COc1ccc(-c2cc(C(=O)NNC(=S)NC(=O)c3c(-c4ccccc4)noc3C)[nH]n2)cc1 | 12 µM (active) | 4.58 µM (active) | 2.1 µM (active) | > 80 µM (inactive) | 2.61 µM (active) | > 38 µM (not active) | > 70 µM (inactive) | 6.51 µM (active) | 0.263 µM (active) | 26.1 µM (active) | 3.62 µM (active) | 53.9 µM (active) | 4.51 µM (active) |  |  |  |  |  | 
2 | CN(C1=C(NC(=O)c2ccccc2)C(=O)c2ccccc2C1=O)C1CCS(=O)(=O)C1 (centres undefined) |  |  |  |  |  |  |  |  |  |  |  |  |  | 1.7 µM (active) | 19.2 µM (active) | 30.9 µM (active) | 0.108 µM (active) | 4.69 µM (active) | 3 µM (active)
